Measured values taken from patent US6737383B1, “Herbicidal oxadiazolidines” (priority 1999, dated 2004).

Key:
purple nutsedge = test: Test B pre/postemergence purple nutsedge; assay type: in vivo, Cyperus rotundus
Procedure, shortened: (§1)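 Test chemicals in a non-phytotoxic solvent mixture with surfactant were sprayed preemergence onto planted seeds and postemergence onto plants 2 to 18 cm tall (1- to 4-leaf stage). After twelve to sixteen days in a greenhouse, injury was visually rated against untreated controls from 0 (no effect) to 10 (complete control).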

blackgrass = test: Test B pre/postemergence blackgrass; assay type: in vivo, Alopecurus myosuroides
Procedure, shortened: as §1

pigweed = test: Test B pre/postemergence pigweed; assay type: in vivo, Amaranthus retroflexus
Procedure, shortened: as §1

soybean = test: Test B pre/postemergence soybean; assay type: in vivo, Glycine max
Procedure, shortened: as §1

rice = test: Test B flood test rice; assay type: in vivo, Oryza sativa
Procedure, shortened: (§2)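 Plants were grown to the 2-leaf stage before treatment with test chemical, then held in a greenhouse for twelve to sixteen days. Injury was visually rated against untreated controls on a 0–10 scale, where 0 is no effect and 10 is complete control.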

smallflower flatsedge = test: Test B flood test smallflower flatsedge; assay type: in vivo, Cyperus difformis
Procedure, shortened: as §2

cocklebur = test: Test B pre/postemergence cocklebur; assay type: in vivo, Xanthium strumarium
Procedure, shortened: as §1

duck salad = test: Test B flood test duck salad; assay type: in vivo, Heteranthera limosa
Procedure, shortened: as §2

morningglory = test: Test B pre/postemergence morningglory; assay type: in vivo, Ipomoea hederacea
Procedure, shortened: as §1

sugar beet = test: Test B pre/postemergence sugar beet; assay type: in vivo, Beta vulgaris
Procedure, shortened: as §1

rape = test: Test B pre/postemergence rape; assay type: in vivo, Brassica napus
Procedure, shortened: as §1

crabgrass = test: Test B pre/postemergence crabgrass; assay type: in vivo, Digitaria sanguinalis
Procedure, shortened: as §1

wheat = test: Test B pre/postemergence wheat; assay type: in vivo, Triticum aestivum
Procedure, shortened: as §1

velvetleaf = test: Test B pre/postemergence velvetleaf; assay type: in vivo, Abutilon theophrasti
Procedure, shortened: as §1

giant foxtail = test: Test B pre/postemergence giant foxtail; assay type: in vivo, Setaria faberii
Procedure, shortened: as §1

corn = test: Test B pre/postemergence corn; assay type: in vivo, Zea mays
Procedure, shortened: as §1

[1] = Postemergence, Rate 62 g/ha, scale 0 to 10, 0 is no effect, 10 is complete control
[2] = Postemergence, Rate 125 g/ha, scale of 0 to 10 where 0 is no effect and 10 is complete control
[3] = Preemergence, Rate 125 g/ha, scale of 0 to 10 where 0 is no effect and 10 is complete control
[4] = Preemergence, Rate 250 g/ha, scale 0 (no effect) to 10 (complete control)
[5] = Rate 62 g/ha, Preemergence, scale 0 to 10
[6] = Rate 250 g/ha, Postemergence, scale 0 to 10, 0 is no effect, 10 is complete control
[7] = Rate 500 g/ha, Postemergence, scale 0 to 10, 0 is no effect, 10 is complete control
[8] = Rate 500 g/ha, Preemergence, scale 0 to 10 (0 no effect, 10 complete control)
[9] = Pre-emergence, Rate 62 g/ha, scale 0 to 10, 0 is no effect, 10 is complete control
[10] = Rate 125 g/ha, Pre-emergence section (flood test species), scale 0 to 10, 0 no effect, 10 complete control
[11] = Rate 250 g/ha, Pre-emergence (flood test species), scale 0 to 10, 0 is no effect, 10 is complete control
[12] = Rate 500 g/ha, Pre-emergence section of Table B, 0 to 10 scale (0 no effect, 10 complete control)

CC(C)N(C(=O)n1oc(=O)n(CC2=NOCCO2)c1=O)c1ccc(Cl)cc1 [Compound 740]
5: Sugarbeets plant response rating (sugar beet; [8]) | Rape plant response rating (rape; [4])
7: Blackgrass plant response rating (blackgrass; [7]) | Morningglory plant response rating (morningglory; [7]) | Giant foxtail plant response rating (giant foxtail; [2])
3: Plant response rating, Blackgrass (blackgrass; [1]) | Blackgrass plant response rating (blackgrass; [2]) | Blackgrass plant response rating (blackgrass; [5]) | Redroot pigweed plant response rating (pigweed; [5]) | Soybean plant response rating (soybean; [2]) | Cocklebur plant response rating (cocklebur; [6]) | Cocklebur plant response rating (cocklebur; [7]) | Morningglory plant response rating (morningglory; [2]) | Morningglory plant response rating (morningglory; [6]) | Sugarbeets plant response rating (sugar beet; [4]) | Plant response rating, Rape (rape; [3]) | Wheat plant response rating (wheat; [8]) | Velvetleaf plant response rating (velvetleaf; [8])
10: Redroot pigweed plant response rating (pigweed; [8]) | Giant foxtail plant response rating (giant foxtail; [8])
2: Redroot pigweed plant response rating (pigweed; [2]) | Plant response rating, Soybean (soybean; [1]) | Plant response rating, Morningglory (morningglory; [1]) | Sugarbeets plant response rating (sugar beet; [6]) | Sugarbeets plant response rating (sugar beet; [7]) | Velvetleaf plant response rating (velvetleaf; [6]) | Velvetleaf plant response rating (velvetleaf; [7]) | Plant response rating, Giant foxtail (giant foxtail; [1])
8: Blackgrass plant response rating (blackgrass; [4]) | Redroot pigweed plant response rating (pigweed; [7]) | Giant foxtail plant response rating (giant foxtail; [6])
9: Blackgrass plant response rating (blackgrass; [8]) | Plant response rating, Redroot pigweed (pigweed; [3]) | Redroot pigweed plant response rating (pigweed; [4]) | Crabgrass plant response rating (crabgrass; [4]) | Crabgrass plant response rating (crabgrass; [6]) | Crabgrass plant response rating (crabgrass; [7]) | Crabgrass plant response rating (crabgrass; [8]) | Plant response rating, Giant foxtail (giant foxtail; [3]) | Giant foxtail plant response rating (giant foxtail; [4]) | Giant foxtail plant response rating (giant foxtail; [7])
6: Plant response rating, Blackgrass (blackgrass; [3]) | Soybean plant response rating (soybean; [7])
4: Blackgrass plant response rating (blackgrass; [6]) | Redroot pigweed plant response rating (pigweed; [6]) | Soybean plant response rating (soybean; [6]) | Plant response rating, Crabgrass (crabgrass; [3]) | Crabgrass plant response rating (crabgrass; [5]) | Wheat plant response rating (wheat; [7]) | Giant foxtail plant response rating (giant foxtail; [5])
0: Plant response rating, Nutsedge (purple nutsedge; [1]) | Nutsedge plant response rating (purple nutsedge; [2]) | Plant response rating, Nutsedge (purple nutsedge; [3]) | Nutsedge plant response rating (purple nutsedge; [4]) | Nutsedge plant response rating (purple nutsedge; [5]) | Nutsedge plant response rating (purple nutsedge; [6]) | Nutsedge plant response rating (purple nutsedge; [7]) | Nutsedge plant response rating (purple nutsedge; [8]) | Plant response rating, Redroot pigweed (pigweed; [1]) | Plant response rating, Soybean (soybean; [3]) | Soybean plant response rating (soybean; [4]) | Soybean plant response rating (soybean; [5]) | Soybean plant response rating (soybean; [8]) | Rice plant response rating (rice; [9]) | Rice plant response rating (rice; [10]) | Rice plant response rating (rice; [11]) | Rice plant response rating (rice; [12]) | S. Flatsedge plant response rating (smallflower flatsedge; [9]) | S. Flatsedge plant response rating (smallflower flatsedge; [10]) | S. Flatsedge plant response rating (smallflower flatsedge; [11]) | S. Flatsedge plant response rating (smallflower flatsedge; [12]) | Plant response rating, Cocklebur (cocklebur; [1]) | Cocklebur plant response rating (cocklebur; [2]) | Plant response rating, Cocklebur (cocklebur; [3]) | Cocklebur plant response rating (cocklebur; [4]) | Cocklebur plant response rating (cocklebur; [5]) | Cocklebur plant response rating (cocklebur; [8]) | Ducksalad plant response rating (duck salad; [9]) | Ducksalad plant response rating (duck salad; [10]) | Ducksalad plant response rating (duck salad; [11]) | Ducksalad plant response rating (duck salad; [12]) | Plant response rating, Morningglory (morningglory; [3]) | Morningglory plant response rating (morningglory; [4]) | Morningglory plant response rating (morningglory; [5]) | Morningglory plant response rating (morningglory; [8]) | Plant response rating, Sugarbeets (sugar beet; [1]) | Sugarbeets plant response rating (sugar beet; [2]) | Sugarbeets plant response rating (sugar beet; [5]) | Plant response rating, Rape (rape; [1]) | Rape plant response rating (rape; [2]) | Rape plant response rating (rape; [5]) | Rape plant response rating (rape; [6]) | Rape plant response rating (rape; [7]) | Plant response rating, Crabgrass (crabgrass; [1]) | Crabgrass plant response rating (crabgrass; [2]) | Plant response rating, Wheat (wheat; [1]) | Wheat plant response rating (wheat; [2]) | Plant response rating, Wheat (wheat; [3]) | Wheat plant response rating (wheat; [4]) | Wheat plant response rating (wheat; [5]) | Wheat plant response rating (wheat; [6]) | Plant response rating, Velvetleaf (velvetleaf; [1]) | Velvetleaf plant response rating (velvetleaf; [2]) | Plant response rating, Velvetleaf (velvetleaf; [3]) | Velvetleaf plant response rating (velvetleaf; [4]) | Velvetleaf plant response rating (velvetleaf; [5]) | Plant response rating, Corn (corn; [1]) | Corn plant response rating (corn; [2]) | Plant response rating, Corn (corn; [3]) | Corn plant response rating (corn; [4]) | Corn plant response rating (corn; [5]) | Corn plant response rating (corn; [6]) | Corn plant response rating (corn; [7]) | Corn plant response rating (corn; [8])
